From patent US9402839B2, “Selective targeting agents for mitochondria” (University of Pittsburgh—Of the Commonwealth System of …, priority 2006, dated 2016)
Non-standard residues stand in square brackets, D forms with d. Residues, ends and D or L forms follow the SMILES beside them. *: point of attachment. Orn = NCCC[C@H](N)C(=O)O; Cbz = O=C(OCc1ccccc1)*; Boc = CC(C)(C)OC(=O)*; X1 = CC1CCN=C(N*)S1

Assays:
[1] = test system: rat ileal mucosal permeability; experiment: Intestinal mucosal permeability assay (FD4 clearance, everted gut sacs) after pressure-controlled hemorrhagic shock; type: in vivo; conditions: for protection against hemorrhagic shock-induced ileal mucosal hyperpermeability: intraluminal, 0.1-100 μM, 2 h shock
Method: Intestinal mucosal permeability assay. Animals were allowed access to water but not food for 24 h prior to the experiment in order to decrease the volume of intestinal contents. The rats were instrumented as described above.
A midline laparotomy was performed and the small intestine was exteriorized from the duodenojejunal junction to the ileocecal valve. A small incision was made on the antimesenteric aspect of the proximal small intestine and saline solution (1.5 ml) was injected. The bowel was ligated proximally and distally to the incision with 4-0 silk (LOOK, Reading, Pa.).
The small intestine was compressed gently in aboral direction along its length to displace intestinal contents into the colon. Starting 5 cm from the ileocecal valve, the ileum was partitioned into six contiguous water-tight segments. Each segment was 3 cm long and was bounded proximally and distally by constricting circumferential 4-0 silk sutures. Care was taken to ensure that the vascular supply to intestine was not compromised, and each segment was well-perfused.
Two randomly selected segments in each rat were injected with 0.3 ml of vehicle and served as “no treatment” controls. In order to fill the segments, a small incision was made and the solution was injected using a Teflon catheter (ABBOCATH 16Ga, ABBOTT LABORATORIES).
The remaining four other segments were injected with solutions containing either 4-hydroxy-2,2,6,6-tetramethylpiperidine-N-oxyl (TEMPOL) or one of the Gramicidin S-based compounds. Four different final concentrations of TEMPOL in normal saline were evaluated: 0.1, 1, 5 and 20 mM. The hemigramicidin-based compounds were dissolved in a mixture of dimethylsulfoxide (DMSO) and normal saline (1:99 v/v) and injected at final concentrations of 0.1, 1, 10 or 100 μM.
After the segments were loaded with saline or the test compounds, the bowel was replaced inside the peritoneal cavity and the abdominal incision was temporarily closed using Backhaus forceps.
After a 5 min stabilization period, hemorrhagic shock was induced by withdrawing blood via the jugular catheter. MAP was maintained at 30±3 mm Hg for 2 hours. The shed blood was re-infused as needed to maintain MAP within the desired range.
After 2 h of shock, the animals were euthanized with an intracardiac KCl bolus injection. The ileum was rapidly excised from the ileocecal valve to the most proximal gut segment. The tips of each segment were discarded. In order to assay caspases 3 and 7 activity and phospholipids peroxidation, mucosa samples were collected from gut segments immediately after hemorrhage and stored at −80° C. For permeability measurements, each segment was converted into an everted gut sac, as previously described by Wattanasirichaigoon et al., see Wattanasirichaigoon, S. et al., Effect of mesenteric ischemia and reperfusion or hemorrhagic shock on intestinal mucosal permeability and ATP content in rats, SHOCK, 12:127-133 (1999).
Briefly, as per the Wattanasirichaigoon protocol referenced above, the sacs were prepared in ice-cold modified Krebs-Henseleit bicarbonate buffer (“KHBB”), pH 7.4. One end of the gut segment was ligated with a 4-0 silk suture; the segment was then everted onto a thin plastic rod. The resulting gut sac was mounted on a Teflon catheter (Abbocath 16GA, Abbot Laboratories) connected to a 3 ml plastic syringe containing 1.5 ml of KHBB. The sac was suspended in a beaker containing KHBB plus fluorescein-isothiocyanate labeled dextran (average molecular mass 4 kDa; FD4; 0.1 mg/ml). This solution was maintained at 37° C., and oxygenated by bubbling with a gas mixture (O2 95%/CO2 5%). After 30 min, the fluid within the gut sac was collected. The samples were cleared by centrifugation at 2000 g for 5 min.
Fluorescence of FD4 in the solution inside the beaker and within each gut sac was measured using a fluorescence spectrophotometer (LS-50, PERKIN-ELMER, Palo Alto, Calif.) at an excitation wavelength of 492 nm and an emission wavelength of 515 nm. […]

mitochondrial membrane = experiment: Quantitative mass spectrometry of AMT peptide conjugates permeating the mitochondrial membrane; type: cell-based; conditions: for Fmole/l0M mitochondrial protein: relative quantification of conjugate concentration at the target site
Method: Quantitative mass spectrometry studies were used to compare the effectiveness of several AMT peptide conjugates in permeating the mitochondrial membrane, specifically XJB-5-234, XJB-5-133, XJB-5-241, and XJB-5-127. The Fmole/10 μM mitochondrial protein ratio provides a relative quantification of conjugate concentration at the target site.

[2] = test system: 32D c13 hemopoietic cells; experiment: Mass spectrometry analysis of mitochondria isolated from incubated 32D c13 cells; type: cell-based; conditions: 100 μM, two hours at 37° C.
Method: An unconjugated and conjugated NOS antagonist, (AMT, 100 μM) and an unconjugated and conjugated nitroxide derivative (4-amino-TEMPO, 100 μM) were incubated for two hours at 37° C. with 32D c13 hemopoietic cells.
Following incubation, the cells were lysed and the mitochondria isolated for a mass spectrometry analysis where compounds isolated from mitochondria were identified as Na+ adducts. […] Thus, the targeting peptides successfully direct a NOS antagonist and a nitroxide to the mitochondria.

[3] = test system: irradiated uroepithelial cells; experiment: NO and peroxynitrite production in irradiated uroepithelial cells (microsensor measurements); type: cell-based
Method: Further physiological studies were conducted to determine the effects of peptide-targeted AMT and 4-amino-TEMPO on NO and peroxynitrite production in irradiated uroepithelial cells. The cells were cultured in an 8-well slide chamber for 3 days and then microsensor measurements were taken 24 hours after irradiation.
In cells treated with high-dose conjugated 4-amin-TEMPO (100 μM), peroxynitrite production was decreased by approximately 4-fold.

MECs [4] = experiment: Determination of intracellular superoxide radicals (DHE oxidation, flow cytometry) in ActD-treated MECs; type: cell-based, mouse; conditions: 10 μM pretreatment, ActD 100 ng/mL; nearly two-fold ActD-induced increase
Method: Determination of intracellular superoxide radicals Oxidation-dependent fluorogenic dye, dihydroethidium (“DHE”, Molecular Probes) was used to evaluate intracellular production of superoxide radicals. DHE is cell permeable and, in the presence of superoxide, is oxidized to fluorescent ethidium which intercalates into DNA. The fluorescence of ethidium was measured using a FACscan (BECTON-DICKINSON, Rutherford, N.J.) flow cytometer, equipped with a 488-nm argon ion laser and supplied with the Cell Quest software. Mean fluorescence intensity from 10,000 cells were acquired using a 585-nm bandpass filter (FL-2 channel).

[5] = test system: mouse embryonic cells (MEC); type: cell-based; conditions: 10 μM; with and without K3Fe(CN)6
Method: Electron paramagnetic resonance (“EPR”) spectroscopy was used to monitor the cellular delivery of compounds 5a and 5b shown in FIG. 2 in mouse embryonic cells (“MEC”).
The following conditions were used during the EPR-based analysis of the integration and reduction of nitroxide Gramicidin S-peptidyl conjugates in MECs. The MECs at a concentration of 10 million MECs per mL were incubated with 10 μM of 4-AT and compound 5a, respectively. Recovered nitroxide radicals in whole cells, mitochondria, and cytosol fractions were resuspended in phosphate buffer saline (“PBS”) in the presence and absence, respectively, of 2 μM K3Fe(CN)6.

MECs [6] = experiment: ActD-induced apoptosis in MECs (PS externalization, caspase-3 activation, DNA fragmentation); type: cell-based, mouse; conditions: 10 μM / low concentrations, ActD 100 ng/mL
Text: Cells that annexin V-positive and PI-negative were considered apoptotic.

## CC1(C)CC(O)CC(C)(C)N1[O] [TEMPOL, 4-hydroxy-2,2,6,6-tetramethylpiperidine-N-oxyl, reference compound]
[1]; intraluminal, 0.1, 1, 5 and 20 mM tested
  concentrations in the gut lumen that ameliorated hemorrhagic shock-induced ileal mucosal hyperpermeability: > 1 mM

## CC(C)C[C@@H](/C=C/[C@H](Cc1ccccc1)C(=O)NC1=NCCC(C)S1)NC(=O)OC(C)(C)C (stereo partly drawn) [XJB-5-234, Boc-Leu-ψ[(E)-CH═CH]-^DPhe-AMT]
Mitochondrial membrane
  Fmole/l0M mitochondrial protein: 1.45 Fmole/l0M mitochondrial protein

## CC1CCN=C(N)S1 (centres unmarked) [AMT, 2-amino-6-methyl-thiazine]
[2]
  permeation of the mitochondrial membrane (mass spectrometry of isolated mitochondria): do not enter the mitochondria membrane in substantial quantities
[3]
  radioprotectant effectiveness compared with 4-amino-TEMPO: more effective radioprotectant
[3]; 10 μM, 24 hours after irradiation
  NO induced peroxynitrite formation: comparable amount of peroxynitrite

## C/C(=C\[C@H](Cc1ccccc1)C(=O)N1CCC[C@H]1C(=O)N[C@H](C(=O)N[C@@H](CCCNC(=O)OCc1ccccc1)C(=O)NC1=NCCC(C)S1)C(C)C)[C@H](CC(C)C)NC(=O)OC(C)(C)C (stereo partly drawn) [XJB-5-241, Boc-Leu-ψ[(E)-C(CH3)═CH]-^DPhe-Pro-Val-Orn(Cbz)-AMT]
Mitochondrial membrane; among XJB-5-234, XJB-5-133, XJB-5-241 and XJB-5-127
  ranking of conjugates in permeating the mitochondrial membrane: most efficacious conjugate
Mitochondrial membrane
  Fmole/l0M mitochondrial protein: 103.3 Fmole/l0M mitochondrial protein

## CC(C)C[C@@H](/C=C/[C@H](Cc1ccccc1)C(=O)N1CCC[C@H]1C(=O)N[C@H](C(=O)N[C@@H](CCCNC(=O)OCc1ccccc1)C(=O)NC1=NCCC(C)S1)C(C)C)NC(=O)OC(C)(C)C (stereo partly drawn) [XJB-5-133, Boc-Leu-ψ[(E)-CH═CH]-^DPhe-Pro-Val-Orn(Cbz)-AMT]
Mitochondrial membrane
  biological activity compared with XJB-5-241: less biologically active
  Fmole/l0M mitochondrial protein: 89.8 Fmole/l0M mitochondrial protein
[1]
  protection against hemorrhagic shock-induced ileal mucosal hyperpermeability: did not afford protection

## CC(C)C[C@H](NC(=O)OC(C)(C)C)C(=O)N[C@H](Cc1ccccc1)C(=O)N1CCC[C@H]1C(=O)N[C@H](C(=O)N[C@@H](CCCNC(=O)OCc1ccccc1)C(=O)NC1=NCCC(C)S1)C(C)C (stereo partly drawn) [XJB-5-127, Boc-Leu-^DPhe-Pro-Val-Orn(Cbz)-AMT] (Boc-L[dF]PV[Orn](Cbz)-X1)
Mitochondrial membrane
  biological activity compared with XJB-5-241: less biologically active
[1]
  protection against hemorrhagic shock-induced ileal mucosal hyperpermeability: Ineffective

## CC1(C)CC(N)CC(C)(C)N1[O] [4-AT, 4-amino-TEMPO, reference compound]
MECs [4]
  intracellular superoxide generation in MECs: no effect
[5]
  integration and one-electron reduction in MECs (EPR signal increase upon ferricyanide): did not effectively permeate cells or the mitochondria
MECs [6]
  protection of MECs against ActD-induced apoptosis: afforded no protection
[2]
  permeation of the mitochondrial membrane (mass spectrometry of isolated mitochondria): only permeate the mitochondrial membrane with the assistance of the attached GS-derived targeting sequence
[3]; 100 μM, 24 hours after irradiation
  capsaicin-evoked peroxynitrite formation compared with untreated irradiated cells: comparable amount of peroxynitrite
